Measured values taken from patent US20040067960A1, “Heterocyclic substituted piperazines for the treatment of schizophrenia” (priority 2002, published 2004).
Counter-ions that a name gives are not always drawn.

Tests used:
[1] = test system: d-amphetamine-stimulated locomotor activity in rats; assay: d-Amphetamine-stimulated locomotor activity (LMA); format: in vivo, Sprague Dawley rat; settings: rat, oral, 30 min before d-amphetamine 1 mg/kg s.c., 2 h recording
Procedure: d-Amphetamine-Stimulated Locomotor Activity (LMA):
The LMA model is used to test novel compounds for efficacy as orally active dopaminergic (DA) antagonists. In this model, administration of d-amphetamine to rats induces a stimulation of locomotor activity, measured as centimeters traveled over a two-hour period. Compounds are administered prior to d-amphetamine, and their efficacy in decreasing the stimulated locomotion is assessed as a measure of DA antagonism.
Sprague Dawley (S-D) male rats were obtained from Harlan Laboratories, Indianapolis Ind. All rats weighed 130-150 g at the time of arrival and were housed in groups of 5 for at least 1 week prior to testing. Food and water were available ad lib. At the time of testing, rats weighed 150-200 g. Tests occurred between 9:00 AM and 4:00 PM. All rats were food deprived overnight prior to testing.
Locomotor activity testing in rats was performed using 16-Beam Digiscan Animal Activity Monitors (Accuscan Electronics, Columbus, Ohio). Each test chamber consisted of a Plexiglas box measuring 16×16 inches, placed within the monitor frame. The entire monitor/chamber assembly is further housed inside a stainless steel sound-attenuating chamber (SAC). The SAC is lighted, ventilated, and isolates the rat from room environment. Rats were tested one per chamber. Data is collected using Versamax software.
Each test consists of four treatment groups, vehicle and three doses of the test compound. Each treatment group is comprised of 8 animals. The test is performed in two sessions, with 4 groups of 4 rats in each treatment group tested in each session, and data from the two sessions, typically morning and afternoon of the same day, combined to give a total of 8 rats per group.
Rats were removed from the housing room and transported to the test room in transfer cages. […]
Data were collected as centimeters traveled during the 2 hour test period. The effect of the test compound was expressed as a percentage decrease (or increase) in stimulated locomotor activity relative to the activity observed in the vehicle-treated group. […]

[2] = biological target: T1, dopamine D2 receptor (Homo sapiens, UniProt P14416); assay: Dopamine D2 receptor binding ([3H]spiperone, CHO-hD2L membranes); settings: [3H]spiperone 0.4 nM
T1 construct: expressed in transfected cells; host or cells: CHO cells (CHO-hD2L)
Excerpt: (§1) The ability of the compounds of this invention to bind to the dopamine D2 and serotonin 2A (5HT2A) receptors can be determined using conventional radioligand receptor binding assays. All receptors can be heterologously expressed in cell lines and experiments conducted in membrane preparations from the cell lines using procedures outlined below. IC50 concentrations can be determined by nonlinear regression of concentration-dependent reduction in specific binding. The Cheng-Prussoff equation can be used to convert the IC50 to Ki concentrations.
Dopamine D2 Receptor Binding:
[^3H]Spiperone binding to a membrane preparation from CHO-hD2L cells is carried out in 250 μl of 50 mM Tris-HCl buffer containing 100 mM NaCl, 1 mM MgCl2 and 1% DMSO at pH 7.4. Duplicate samples containing (in order of addition) the test compounds, 0.4 nM [^3H]spiperone and approximately 12 μg protein are incubated for 120 minutes at room temperature. Bound radioligand is separated by rapid filtration under reduced pressure through Whatman GF/B glass fiber filters previously treated with 0.3% polyethyleneimine. Radioactivity retained on the filter is determined by liquid scintillation spectrophotometry.
The title compounds of Examples 1-6 were tested using the above assay, in which specific binding determined in the presence of 1 mM haloperidol was 95%.

[3] = biological target: T2, serotonin 2A (5HT2A) receptor (Homo sapiens, UniProt P28223); assay: Serotonin 2A binding ([3H]ketanserin, Swiss-h5HT2A cell membranes); settings: [3H]ketanserin 1.0 nM
T2 construct: expressed in transfected cells; host or cells: Swiss cells (Swiss-h5HT2A)
Excerpt: as §1
[^3H] Ketanserin binding to Swiss-h5HT2A cell membranes can be carried out in 250 μl of 50 mM Tris-HCl buffer pH 7.4. Duplicate samples containing (in order of addition) test compounds, 1.0 nM [^3H]ketanserin, and approximately 75 μg protein are incubated for 120 minutes at room temperature. Bound radioligand is separated by rapid filtration under reduced pressure through Whatman GF/B glass fiber filters previously treated with 0.3% polyethyleneimine. Radioactivity retained on the filter is determined by liquid scintillation spectrophotometry.
The title compounds of Examples 1-6 were tested using the above assay, in which specific binding determined in the presence of 1 mM ketanserin was 90%.

T1 sequence (P14416 whole entry): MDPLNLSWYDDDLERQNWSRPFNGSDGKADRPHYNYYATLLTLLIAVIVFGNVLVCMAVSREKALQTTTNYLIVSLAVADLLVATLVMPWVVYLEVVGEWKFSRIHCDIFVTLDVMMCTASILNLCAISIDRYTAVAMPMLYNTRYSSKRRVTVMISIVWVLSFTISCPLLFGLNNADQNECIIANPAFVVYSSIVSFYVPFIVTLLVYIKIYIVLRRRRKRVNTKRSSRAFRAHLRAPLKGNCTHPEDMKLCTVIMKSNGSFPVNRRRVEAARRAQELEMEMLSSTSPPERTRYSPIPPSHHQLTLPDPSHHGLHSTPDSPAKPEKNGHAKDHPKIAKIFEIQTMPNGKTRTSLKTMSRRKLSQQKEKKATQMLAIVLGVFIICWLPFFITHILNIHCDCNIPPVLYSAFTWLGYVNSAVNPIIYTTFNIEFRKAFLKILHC
T2 sequence (P28223 whole entry): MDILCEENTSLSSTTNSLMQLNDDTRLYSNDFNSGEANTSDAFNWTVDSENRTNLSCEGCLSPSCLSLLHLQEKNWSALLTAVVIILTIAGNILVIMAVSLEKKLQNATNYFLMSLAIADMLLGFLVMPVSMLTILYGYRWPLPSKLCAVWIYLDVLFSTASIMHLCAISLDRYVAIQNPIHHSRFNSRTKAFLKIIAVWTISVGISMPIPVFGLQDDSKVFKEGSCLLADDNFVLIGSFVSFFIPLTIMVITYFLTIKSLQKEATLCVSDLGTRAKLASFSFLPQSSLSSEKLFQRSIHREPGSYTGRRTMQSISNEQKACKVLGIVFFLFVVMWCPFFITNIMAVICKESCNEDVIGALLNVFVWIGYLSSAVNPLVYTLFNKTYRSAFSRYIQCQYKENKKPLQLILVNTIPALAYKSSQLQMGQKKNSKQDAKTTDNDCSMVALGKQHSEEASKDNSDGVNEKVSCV

melting point [°C] | Structure (SMILES) | further results
109 | CC(=O)N1CCC(C)(C)c2cccc(CCCN3CCN(c4nsc5ccccc45)CC3)c21 (as salt: HCl) [Example 19, 1-{8-[3-(4-BENZO[D]ISOTHIAZOL-3-YL-PIPERAZIN-1-YL)-PROPYL]-4,4-DIMETHYL-3,4-DIHYDRO-2H-QUINOLIN-1-YL}-ETHANONE] | 
132 | CC(=O)N1CCC(C)(C)c2c(C)ccc(CCN3CCN(c4nsc5ccccc45)CC3)c21 (as salt: HCl) [Example 21, 1-{8-[2-(4-BENZO[D]ISOTHIAZOL-3-YL-PIPERAZIN-1-YL)-ETHYL]-4,4,5-TRIMETHYL-3,4-DIHYDRO-2H-QUINOLIN-1-YL}-ETHANONE] | 
230 | CC(=O)N1CCC(C)(C)c2c(C)ccc(CCN3CCN(c4noc5ccccc45)CC3)c21 (as salt: HCl) [Example 26, 1-{8-[2-(4-BENZO[D]ISOXAZOL-3-YL-PIPERAZIN-1-YL)-ETHYL]-4,4,5-TRIMETHYL-3,4-DIHYDRO-2H-QUINOLIN-1-YL}-ETHANONE] | 
112 | CC(=O)N1CCC(C)(C)c2cc(F)cc(CCN3CCN(c4noc5ccccc45)CC3)c21 (as salt: HCl) [Example 28, 1-{8-[2-(4-benzo[d]isoxazol-3-yl-piperazin-1-yl)-ethyl]-6-fluoro-4,4-dimethyl-3,4-dihydro-2H-quinolin-1-yl}-ethanone] | 
235 | CC1(C)CC(=O)Nc2c(CCN3CCN(c4n[s+]([O-])c5ccccc45)CC3)cc(F)cc21 (stereo not drawn) [Example 14, 6-Fluoro-4,4-dimethyl-8-{2-[4-(1−oxo-1H-1λ^4-benzo[d]isothiazol-3-yl)-piperazin-1-yl]-ethyl}-3,4-dihydro-1H-quinolin-2-one] | 
191 | CC1(C)CC(=O)Nc2c(CCN3CCN(c4nsc5ccc(F)cc45)CC3)cc(F)cc21 [Example 16, 6-FLUORO-8-{2-[4-(5-FLUORO-BENZO[D]ISOTHIAZOL-3-YL)-PIPERAZIN-1-YL]-ETHYL}-4,4-DIMETHYL-3,4-DIHYDRO-1H-QUINOLIN-2-ONE] | 
166 | CC1(C)CC(=O)Nc2c(CCCN3CCN(c4nsc5ccccc45)CC3)cccc21 [Example 18, 8-[3-(4-BENZO[D]ISOTHIAZOL-3-YL-PIPERAZIN-1-YL)-PROPYL]-4,4-DIMETHYL-3,4-DIHYDRO-1H-QUINOLIN-2-ONE] | 
129 | Cc1ccc(CCN2CCN(c3nsc4ccccc34)CC2)c2c1C(C)(C)CC(=O)N2 [Example 20, 8-[2-(4-BENZO[D]ISOTHIAZOL-3-YL-PIPERAZIN-1-YL)-ETHYL]-4,4,5-TRIMETHYL-3,4-DIHYDRO-1H-QUINOLIN-2-ONE] | 
170 | Cc1ccc(CCN2CCN(c3noc4ccccc34)CC2)c2c1C(C)(C)CC(=O)N2 [Example 24, 8-[2-(4-BENZO[D]ISOXAZOL-3-YL-PIPERAZIN-1-YL)-ETHYL]-4,4,5-TRIMETHYL-3,4-DIHYDRO-1H-QUINOLIN-2-ONE] | 
135 | Cc1ccc(CCN2CCN(c3noc4ccccc34)CC2)c2c1C(C)(C)CCN2 [Example 25, 8-[2-(4-BENZO[D]ISOXAZOL-3-YL-PIPERAZIN-1-YL)-ETHYL]-4,4,5-TRIMETHYL-1,2,3,4-TETRAHYDRO-QUINOLINE] | 
230 | CC1(C)CC(=O)Nc2c(CCN3CCN(c4noc5ccccc45)CC3)cc(F)cc21 [Example 27, 8-[2-(4-BENZO[D]ISOXAZOL-3-YL-PIPERAZIN-1-YL)-ETHYL]-6-FLUORO-4,4-DIMETHYL-3,4-DIHYDRO-1H-QUINOLIN-2-ONE] | 

The remaining lines, values behind:

Structure (SMILES) | melting point [°C] | further results
Cl.O=C1CCc2cccc(CCN3CCN(c4nsc5ccccc45)CC3)c2N1 | 251 | 
CC(=O)N1CCC(C)(C)c2cc(F)cc(CCN3CCN(c4nsc5ccc(F)cc45)CC3)c21 (as salt: HCl) | 128 | 
CC1(C)CC(=O)Nc2c(CCN3CCN(c4nsc5ccccc45)CC3)cccc21 (as salt: hydrochloride) [Example 1, 8-[2-(4-1,2-BENZISOTHIAZOL-3-YL-PIPERAZIN-1-YL)-ETHYL]-4,4-DIMETHYL-3,4-DIHYDRO-1H-QUINOLIN-2-ONE] | 284 | 
CC1(C)CC(=O)Nc2c(CCN3CCN(c4nsc5ccccc45)CC3)cc(F)cc21 (as salt: hydrochloride) [Example 3, 8-[2-(4-1,2-BENZISOTHIAZOL-3-YL-PIPERAZIN-1-YL)-ETHYL]-6-FLUORO-4,4-DIMETHYL-3,4-DIHYDRO-1H-QUINOLIN-2-ONE] | 298 | 
CC1(C)CC(=O)Nc2c(CCN3CCN(c4nsc5ccccc45)CC3)cccc21 [Example 1, 8-[2-(4-1,2-BENZISOTHIAZOL-3-YL-PIPERAZIN-1-YL)-ETHYL]-4,4-DIMETHYL-3,4-DIHYDRO-1H-QUINOLIN-2-ONE] |  | activity in reducing d-amphetamine-stimulated locomotor activity (significant decrease vs vehicle) [1]: active
CN1C(=O)CC(C)(C)c2cccc(CCN3CCN(c4nsc5ccccc45)CC3)c21 [Example 2, 8-[2-(4-1,2-BENZISOTHIAZOL-3-YL-PIPERAZIN-1-YL)-ETHYL]-1,4,4-TRIMETHYL-3,4-DIHYDRO-1H-QUINOLIN-2-ONE] | 261 | Ki [2]: 81.3 nM; Ki [3]: 0.18 nM
CC1(C)CC(=O)Nc2c(CCN3CCN(c4nsc5ccccc45)CC3)cc(F)cc21 [Example 3, 8-[2-(4-1,2-BENZISOTHIAZOL-3-YL-PIPERAZIN-1-YL)-ETHYL]-6-FLUORO-4,4-DIMETHYL-3,4-DIHYDRO-1H-QUINOLIN-2-ONE] |  | activity in reducing d-amphetamine-stimulated locomotor activity (significant decrease vs vehicle) [1]: active
CC1(C)Cc2cccc(CCN3CCN(c4nsc5ccccc45)CC3)c2NC1=O [Example 5, 8-[2-(4-1,2-BENZISOTHIAZOL-3-YL-PIPERAZIN-1-YL)-ETHYL]-3,3-DIMETHYL-3,4-DIHYDRO-1H-QUINOLIN-2-ONE] | 95 | Ki [2]: 74.9 nM; Ki [3]: 2.07 nM
O=C1CC(c2ccccc2)c2cccc(CCN3CCN(c4nsc5ccccc45)CC3)c2N1 (stereo not drawn) [Example 6, 8-[2-(4-1,2-BENZISOTHIAZOL-3-YL-PIPERAZIN-1-YL)-ETHYL]-4-PHENYL-3,4-DIHYDRO-1H-QUINOLIN-2-ONE] | 227 | Ki [2]: 13.8 nM; Ki [3]: 0.04 nM
Cc1cc(=O)[nH]c2c(CCN3CCN(c4nsc5ccccc45)CC3)cccc12 [Example 29, 8-[2-(4-BENZO[D]ISOTHIAZOL-3-YL-PIPERAZIN-1-YL)-ETHYL]-4-METHYL-1H-QUINOLIN-2-ONE] |  | activity in reducing d-amphetamine-stimulated locomotor activity (significant decrease vs vehicle) [1]: active
